Data on 2 compounds can be found in patent US20120046457A1, “PREPARATION OF DECITABINE” (DR. REDDY'S LABORATORIES, INC., priority 2009, published 2012).

For data set [1] the following is noted: cited from earlier work.
Data set [2] can be described thus: Hygroscopicity of decitabine (hygroscopic stability). The class given is physicochemical. The note with it: for Moisture (Wt. %): room temperature. How it is done: Decitabine obtained from Example 10 is tested for hygroscopic stability. Samples are analyzed as initially prepared, and at intervals after 1 day and 7 days of storage at room temperature; the results are tabulated below.

Data set [3] can be described thus: Storage stability of packaged anhydrous crystalline decitabine (TGA weight loss). The data set is classed as physicochemical. The note with it: 40±2° C., relative humidity 75±5%, described packaging. How it is done: Thermogravimetric analyses reported herein for decitabine were carried out using a SHIMADZU, DTG-60, Thermogravimetric Analyzer with a ramp of 10° C./minute up to 250° C.
In embodiments, the present application provides a storage system for decitabine. A storage system of the present application comprises at least one sealed polymeric bag, (e.g., a transparent or opaque polyethylene bag having a thickness of about 0.1 mm to about 0.5 mm) or a combination of such bags, which, if desired, may be sealed inside a laminated aluminum bag. An oxygen absorbent and a moisture absorbent (or desiccant), may be included between one or more of such bags. Finally, the packaged material is stored in sealed HDPE containers.
Anhydrous crystalline decitabine with an initial XRD pattern substantially in accordance with FIG. 4 remains stable for a period at least about 4 months, or about 6 months, when stored at 40±2° C. and a relative humidity of 75±5% under the packaging conditions described above. The TGA weight losses of representative samples stored under these conditions are tabulated below.

With `Nc1ncn([C@H]2C[C@H](O)[C@@H](CO)O2)c(=O)n1` [Decitabine monohydrate], in data set [1] (room temperature), the stability result is reported as “stable”.

For the compound `Nc1ncn([C@H]2C[C@H](O)[C@@H](CO)O2)c(=O)n1` [Decitabine, 4-amino-1-(2-deoxy-β-D-erythropentofuranosyl)-1,3,5-triazin-2(1H)-one], in data set [1] (exposed to humidity, monohydrate formed), the moisture at equilibrium is reported as 7%. The “Moisture (Wt. %)” value in data set [2] (40-50% RH, 1 day) came to 6.63 Wt. %; in data set [2] (40-50% RH, 7 days), 7.12 Wt. %; in data set [2] (40-50% RH, initial) it was 0.18 Wt. %; in data set [2] (90% RH, 1 day) it was 5.46 Wt. %; in data set [2] (90% RH, 7 days) it was 7.17 Wt. %; in data set [2] (90% RH, initial), 0.18 Wt. %. The moisture content acquired entry in data set [2] (exposed to the atmosphere) is on record as “up to 1 mole”. Further, the “solid form after moisture uptake” value in data set [2] (exposed to the atmosphere) is recorded as “change to a monohydrate form”. The “period for which it remains stable” value in data set [3] is “at least 4 months”. Besides, the “TGA Weight Loss (%)” value was 0.07% in data set [3] (storage time 1 month), 0.15% in data set [3] (storage time 2 months), 0.26% in data set [3] (storage time 3 months) and 0.16% in data set [3] (storage time 4 months).
